Results as given in US20260355168A1, “COMPOSITIONS AND METHODS FOR TREATING AND DETECTING CANCER” (CASE WESTERN RESERVE UNIVERSITY, priority 2022, published 2026).
“Also recorded” adds a separate entry of the source.

What was measured:
Format in all cases: cell-based, human
[1] = test system: Gli36 cells; experiment: Gli36 glioma sphere formation and growth assay; details: for Effect on Gli36 sphere formation: day 1; for Effect on Gli36 sphere formation / Effect on Gli36 sphere growth: in words
Description: FIGS. 6(A-E) illustrate a histogram and images showing the results of the Gli36 sphere formation and growth assays. Selected inhibitors, activators, and control compounds identified in LN229 and/or U87 scratch wound closure assays were retested at 100 μM in a secondary assay for glioma cell (Gli36) sphere formation and growth. A. Histogram showing the effects of the indicated compounds on Day 1 sphere footprint areas. Footprint areas were measured and normalized to the average footprint area of the unblinded DMSO-treated controls. On day 1, a larger footprint area indicates inhibition of aggregation. B. Histogram showing the effects of the indicated compounds on sphere growth. Changes in sphere footprint areas were calculated and normalized to the average size change of the unblinded vehicle-treated controls. On day 7, a smaller value indicates reduced growth. […] Data is presented as percentages±s.e.m. of 2-4 replicates. Representative images of samples treated with DMSO (C) and two priority inhibitors (D and E) are shown. Relative day 1 footprint areas and day 7 growth measurements are indicated for each example.
(§1) Cells were seeded at a density of 7500 cells per well into the internal wells of 96-well plates coated with 0.75% (wt/vol) PVA as previously described. Compounds were added (2×replicates per treatment) at the indicated final concentrations, and control wells were treated with matching concentrations of DMSO. The external wells of the plates were filled with PBS to buffer against edge effects, and the cells were incubated at 37 °C and 5% CO2 for 7 days. A Leica CTR6500 microscope fitted with an automated stage was used to capture brightfield images on day 1 and day 7, and sphere footprint areas were measured using Image J (v1.52a http://imagej.nih.gov/ij) as previously described. To quantify the effects of the compounds on day 1, the footprint areas of the treated wells were normalized to the average area of the matched DMSO control wells. To quantify the effects of the compounds on sphere growth, the change in the sphere footprint areas was calculated ([…]) and then normalized to the average size change of the matched DMSO samples. All values are presented as average percentages±s.e.m.

[2] = test system: LN229 cells; experiment: Helix Blue staining of LN229 spheres (cell survival); details: 100 μM, 24 h, qualitative
Description: FIG. 17 illustrates images showing the effects of prioritized inhibitors on cell survival. LN229 cells were plated onto non-adherent surfaces and cultured in the presence of the indicated compounds (100 μM). On day 1, spheres were stained with Helix Blue to detect dying cells. Parental Sf9 cells (which lack PTPμ) plated onto tissue culture plastic were also grown in the presence of the indicated compounds and, on day 1, stained with Helix Blue. Three compounds appeared to cause a qualitative increase in staining in LN229 spheres. No compound was toxic to Sf9 cells.
LN229 cells, plated onto non-adherent surfaces as described above, and parental Sf9 cells (without PTPμ), seeded into 96-well flat bottom tissue culture plates, were treated for 24 h with the indicated compounds (100 μM). The cells and spheres were then treated with 5.5 μM Helix Blue (Biolegend, San Diego, CA) and imaged at 10× on a Leica CTR6500 fluorescence microscope.
The seven penetrant inhibitors were tested to see if they affected the survival of LN229 spheres and parental Sf9 cells (which lack PTPμ) (FIG. 17).

[3] = test system: glioma cells; experiment: Glioma cell assays combined (scratch and sphere, several cell lines); details: 100 μM; for Effect on glioma cells, overall: multiple assays and cell lines; for Effect on glioma cell migration: scratch assays
Description: FIG. 2 illustrates a schematic of a functional screening approach. Seventy-four PTPμ wedge-targeted compounds and 2 blinded DMSO samples were received from Atomwise and screened at 100 μM in scratch wound healing assays using two glioma cell lines (LN229 and U87). Selected active and control compounds were taken into secondary assays (Gli36 scratch and LN229 and Gli36 sphere formation and growth assays). Inhibitors selected as being active in primary and secondary screens were tested for effects on the survival of LN229 and Sf9 cells, and selected glioma-cell inhibitors and activators were screened for effects on Sf9-PTPμ aggregation, a highly specific test for PTPμ function.
Cells were seeded at a density of 2.7×10^4 cells per well into the internal wells of Incuyte1 Imagelock 96-well plates (Essen BioScience Inc., Ann Arbor, MI) and cultured overnight to form monolayers. Monolayers were wounded with an IncuCyte1 96-well Woundmaker Tool per the manufacturer's instructions. The outer wells were filled with PBS to buffer edge effects, and then the wounded monolayers were cultured in 100 μl of fresh media with compounds or DMSO (2×replicates at 100 μM or 1%, respectively) at 37 °C and 5% CO2. Images were captured every 4 hrs. using an Incucyte live cell imaging system equipped with the Scratch Wound Module. Scratch wound widths were calculated, per the manufacturer's instructions, at TO and at endpoint (typically T12 for LN229 and U87 cells and T8 for Gli36), which was taken as the last timepoint before wound closure. The cell migration distance was calculated from scratch widths [(T0Width−TendpointWidth)/2] and normalized to the average distance migrated by the DMSO controls. Values are presented as average percentages±standard errors of the means (s.e.m.). The majority of compounds were screened with an n of two, but the n for priority hits ranges from 2-6.
as §1

SMILES	Effect on Gli36 sphere formation ([1]; 100 μM)	Effect on Gli36 sphere growth ([1]; 100 μM, day 7)	Effect on LN229 cell survival / cell death [2]	Effect on glioma cells, overall [3]	Effect on glioma cell migration [3]	Gli36 sphere appearance ([1]; 100 μM, day 7)	activity at 100 µM ([1]; Homo sapiens, GLI36, 168 h, read-out: Gli36 sphere growth (indicated value; sample fell apart on day 1), growth could not be calculated, indicated as '0' growth) [%]
O=C(NCc1nc(-c2ccncc2)no1)c1ccc(Cl)c(S(=O)(=O)NCc2ccccc2)c1 [Compound 247678791]	slowed condensation of Gli36 cells	grew more slowly than controls	did not affect LN229 survival	highly penetrant inhibitors; also recorded: able to inhibit glioma cells	able to inhibit glioma cell migration		
COc1cc(C)ccc1OCC(=O)Nc1nc(-c2c[nH]c(C(N)=O)c2)cs1 [Compound 247678835]	slowed aggregation of Gli36 cells	grew poorly	caused a qualitative increase in LN229-cell death; also recorded: induced LN229-cell death in vitro; also recorded: affect the survival of LN229 cells	highly penetrant inhibitors; also recorded: able to inhibit glioma cells	able to inhibit glioma cell migration	more optically translucent than control spheres on Day 7	
CCN(C(=O)CN1C(=O)NC(C)(CCC(C)C)C1=O)c1cccc2ccccc12 (stereo not drawn) [Compound 247677616]	completely blocked Gli36 sphere formation; also recorded: fell apart on day 1		caused a qualitative increase in LN229-cell death; also recorded: causing LN229 cell death	highly penetrant inhibitors in glioma cell assays			0
